Laboratory results from ChEMBL document CHEMBL3046235, “In vitro biological activities of new heterocyclic chalcone derivatives” (Med Chem Res, 2013).
In brackets after ≈: the same amount, converted by molar mass. Activity calls are given as the source filed them. No cut-off for these calls is given here.

Legend:
[1] = system: Aspergillus niger; assay: Antimicrobial activity against Aspergillus niger assessed as diameter of growth inhibition zone at 40 ug/ml by disk diffusion method; assay type: functional; conditions: read-out: DIZ
[2] = system: Candida albicans; assay: Antimicrobial activity against Candida albicans assessed as diameter of growth inhibition zone at 40 ug/ml by disk diffusion method; assay type: functional; conditions: read-out: DIZ
[3] = system: Staphylococcus aureus; assay: Antimicrobial activity against Staphylococcus aureus isolated from infected patient assessed as growth inhibition by disk diffusion method; assay type: functional
[4] = system: Buffalopox virus; assay: Antiviral activity against Buffalopox virus virus infected African green monkey Vero cells assessed as inhibition of viral replication at MNTC dose incubated for 24 hr measured after 4 days; assay type: functional
[5] = system: HepG2; assay: Growth inhibition of Homo sapiens (human) HepG2 cells at 100 ug/ml after 48 hr by MTT assay; assay type: functional; conditions: HepG2, 48 h, read-out: GI
[6] = system: Buffalopox virus; assay: Antiviral activity against Buffalopox virus virus infected African green monkey Vero cells assessed as reduction of virus titers at MNTC dose incubated for 24 hr measured after 4 days by TCID50 assay; assay type: functional, organism-based
[7] = system: Radical scavenging activity; assay: Antioxidant activity assessed as DPPH radical scavenging activity at 15 ug/ml after 30 min by spectrophotometric analysis; assay type: functional
[8] = system: Vero; assay: Cytotoxicity against Chlorocebus aethiops (African green monkey) Vero cells assessed as change in morphological changes after 4 days by inverted microscopic analysis; assay type: cell-based; conditions: chlorocebus sabaeus, 96 h
[9] = system: Bacillus subtilis; assay: Antimicrobial activity against Bacillus subtilis isolated from infected patient assessed as diameter of growth inhibition zone at 40 ug/ml by disk diffusion method; assay type: functional; conditions: read-out: DIZ
[10] = system: Camelpox virus; assay: Antiviral activity against Camelpox virus infected African green monkey Vero cells assessed as inhibition of viral replication at MNTC dose incubated for 24 hr measured after 3 days; assay type: functional
[11] = system: Aspergillus niger; assay: Antimicrobial activity against Aspergillus niger assessed as growth inhibition by disk diffusion method; assay type: functional
[12] = system: Salmonella typhi; assay: Antimicrobial activity against Salmonella enterica subsp. enterica serovar Typhi isolated from infected patient assessed as growth inhibition by disk diffusion method; assay type: functional
[13] = system: Camelpox virus; assay: Antiviral activity against Camelpox virus infected African green monkey Vero cells assessed as reduction of virus titers at MNTC dose incubated for 24 hr measured after 3 days by TCID50 assay; assay type: functional, organism-based
[14] = system: Escherichia coli; assay: Antimicrobial activity against Escherichia coli isolated from infected patient assessed as growth inhibition by disk diffusion method; assay type: functional
[15] = system: Bacillus subtilis; assay: Antimicrobial activity against Bacillus subtilis isolated from infected patient assessed as growth inhibition by disk diffusion method; assay type: functional
[16] = system: Staphylococcus aureus; assay: Antimicrobial activity against Staphylococcus aureus isolated from infected patient assessed as diameter of growth inhibition zone at 40 ug/ml by disk diffusion method; assay type: functional; conditions: read-out: DIZ
[17] = system: Salmonella typhi; assay: Antimicrobial activity against Salmonella enterica subsp. enterica serovar Typhi isolated from infected patient assessed as diameter of growth inhibition zone at 40 ug/ml by disk diffusion method; assay type: functional; conditions: read-out: DIZ
[18] = system: Escherichia coli; assay: Antimicrobial activity against Escherichia coli isolated from infected patient assessed as diameter of growth inhibition zone at 40 ug/ml by disk diffusion method; assay type: functional; conditions: read-out: DIZ
[19] = system: Goatpox virus; assay: Antiviral activity against Goatpox virus infected African green monkey Vero cells assessed as inhibition of viral replication at MNTC dose incubated for 24 hr measured after 6 days; assay type: functional
[20] = system: Candida albicans; assay: Antimicrobial activity against Candida albicans assessed as growth inhibition by disk diffusion method; assay type: functional
[21] = system: HepG2; assay: Growth inhibition of Homo sapiens (human) HepG2 cells up to 75 ug/ml after 48 hr by MTT assay; assay type: functional, cell-based
[22] = system: HepG2; assay: Cytotoxicity against Homo sapiens (human) HepG2 cells assessed as inhibition of cell viability by trypan blue exclusion method; assay type: functional; conditions: read-out: LC50 (the source's name)
[23] = system: Goatpox virus; assay: Antiviral activity against Goatpox virus infected African green monkey Vero cells assessed as reduction of virus titers at MNTC dose incubated for 24 hr measured after 6 days by TCID50 assay; assay type: functional, organism-based
[24] = system: HepG2; assay: Growth inhibition of Homo sapiens (human) HepG2 cells at 25 to 100 ug/ml after 48 hr by MTT assay; assay type: functional, cell-based

Compound	zone of inhibition at 40 µg/mL [1] [mm]	zone of inhibition at 40 µg/mL [2] [mm]	MIC [3] [mg/L]	inhibition (INH) [4] [%]	inhibition [6]	Activity [7] [%]	MNTD [8] [µg]	zone of inhibition at 40 µg/mL [9] [mm]	inhibition (INH) [10] [%]	MIC [11] [mg/L]	MIC [12] [mg/L]	inhibition [13]	MIC [14] [mg/L]	MIC [15] [mg/L]	zone of inhibition at 40 µg/mL [16] [mm]	zone of inhibition at 40 µg/mL [17] [mm]	zone of inhibition at 40 µg/mL [18] [mm]	inhibition (INH) [19] [%]	MIC [20] [mg/L]	CC50 [22] [mg/L]	also measured
Cc1cc(C(=O)/C=C/c2ccc(-c3ccccc3)cc2)c(C)o1	23	23	20 (≈ 66.1 µM)	0	inactive	31	4.68	24	0	20 (≈ 66.1 µM)	30 (≈ 99.2 µM)	inactive	20 (≈ 66.1 µM)	30 (≈ 99.2 µM)	16	22	23	0	20 (≈ 66.1 µM)	92 (≈ 304 µM)	inhibition of growth at 100 µg/mL [5]: 67%; growth inhibition (GI) [21]: Active; inhibition [23]: inactive
COc1ccc(/C=C/C(=O)c2ccsc2)cc1	23	25	20 (≈ 81.9 µM)	0	inactive	31	6.24	24	0	30 (≈ 123 µM)	40 (≈ 164 µM)	inactive	20 (≈ 81.9 µM)	30 (≈ 123 µM)	25	24	26	0	30 (≈ 123 µM)	12 (≈ 49.1 µM)	growth inhibition (GI) [24]: Active; inhibition [23]: inactive
CCc1ccc(/C=C/C(=O)c2cc(C)oc2C)o1	22	21	40 (≈ 164 µM)	0	inactive	31	2.08	24	0	40 (≈ 164 µM)	40 (≈ 164 µM)	inactive	40 (≈ 164 µM)	30 (≈ 123 µM)	18	23	27	0	40 (≈ 164 µM)	69 (≈ 282 µM)	inhibition [23]: inactive
